The conditions of data set [1]: in vivo; cited from earlier work.
The test system of data set [2] is SHBG. As to the kind of experiment: Effect on serum concentrations of SHBG. As to conditions: in vivo.
Data set [3] is described as follows: Recoverable SA and EE after storage. It is filed as physicochemical. The note with it: for amount recoverable from the vaginal system: 24 months of storage at 25° C. and 60% relative humidity. As to the method: This was quite surprising as a similar trend was not observed during long-term stability studies on the cores before assembly.
• Diluent: methanol/water 58/42 v/v • Dried NES and EE before weighing (100-105° C. 3 h) • EE stock solution: Dissolved 25.0 mg of EE and diluted to 250.0 mL with methanol (duplicates, EE1 and EE2) • NES stock solution: Dissolved 50.0 mg of NES and diluted to 100.0 mL with methanol (duplicates, NES1 and NES2) • Standard solutions: • S1: Diluted 5.0 mL of NES1 and 4.0 mL of EE1 to 50.0 mL with diluent • S2: Diluted 6.0 mL of NES2 and 5.0 mL of EE2 to 50.0 mL with diluent • S3: Diluted 8.0 mL of NES1 and 7.0 mL of EE1 to 50.0 mL with diluent • S4: Diluted 10.0 mL of NES2 and 9.0 mL of EE2 to 50.0 mL with diluent • System suitability solution (SST solution): Diluted 5.0 mL acetone+7.0 mL NES1+6.0 mL EE1 to 50.0 mL with diluent. Extraction Procedure: • Rings were cut into 8 pieces and each piece was divided lengthwise then transferred to an Erlenmeyer flask. • 140 mL of acetone (weight of flask was noted before and after acetone addition) was added to the flask. […] Liquid Chromatography Column • analytical column: Discovery C8, 5 μm, 150×4.6 mm (Supelco) • pre-column: Supelguard, Discovery C8, 5 μm, 20×4.0 mm (Supelco) • stationary phase: endcapped C8 (5 μm particle size) USP L7 • temperature: 30° C. • Mobile phase: methanol/water 58/42, isocratic elution • Flow rate: 1.2 mL/min • Detection (assay): NES UV 240 nm, EE UV 280 nm • Detection (identity): PDA (photodiode array detector) scanning 220-310 nm, NES 240 nm, EE 280 nm • Injection: 20 μL • Run time: 15 min • System suitability: SST solution • Area precision (n=5): RSD (%)≤2.0 • Peak tailing (T): 0.8≤T≤1.5 • Blank injections: No interfering peaks • Retention times: EE approximately 7 min and NES approximately 9 min • Results Assay: Report the average value of three different rings and express as mg EE/ring and mg NES/ring. • Results Content uniformity: Calculate the average value of ten different rings. […]

A short description of data set [4]: Drug-drug interaction study with vaginal miconazole formulations. The class given is in vivo, human. As to conditions: concurrent water-based vaginal miconazole cream. The source says: However, the use of either the 1 day or the 3-day oil-based miconazole suppository was associated with an overall increase in exposure up to 67% for EE and 32% for SA. Considering the potential long-term effect on vaginal system performance, concurrent use of oil-based vaginal suppositories should not occur with the system's use. If there is a need to treat a vaginal condition, water-based vaginal cream or oral therapy may be used concurrently with the vaginal system.

A short description of data set [5]: Pharmacokinetics of the vaginal system in 39 women over up to 13 product-use cycles. It is filed as in vivo. Set-up: concentration or dose not given beside the values. As to conditions: female, human, serum. The method, then:
The pharmacokinetics (PK) of the vaginal system described herein were determined in 39 women who used the system for up to 13 product-use cycles. […] Over subsequent product-use cycles, the peak serum concentrations of SA and EE declined. Serum concentration-time profiles of SA and EE for product-pse cycles 1, 3, and 13 of system use are provided in FIG. 1 and FIG. 2 with PK parameters summarized in Table 8 and Table 9.

Data set [6] in a line: PK study in females with BMI<25 vs BMI>25 kg/m^2. The class given is in vivo, human. As to conditions: 18 females BMI<25 vs 21 females BMI>25 kg/m^2. The source says: The vaginal system described herein has not been adequately evaluated in females with a body mass index of >29 kg/m2. […] Higher body weight associates with lower systemic exposure of SA and EE. In a PK study conducted in 18 females with BMI<25 (16.89-24.34) kg/m^2 and 21 females with BMI>25 (25.15-37.46) kg/m^2, up to 16% and 33% decreases in the systemic exposure (AUC0-21day) of SA and EE, respectively, were observed between the two BMI groups.

Data set [7] is described as follows: Solubility in solvents (descriptive). As to conditions: USP classification. It is filed as physicochemical.
In data set [8] the test system is Chinese hamster ovary cells. As to the kind of experiment: Chromosomal aberration assay. The class given is cell-based.
Data set [9] relates to rats. The data set can be described thus: Return to fertility study in rats with subdermal implants. The note with it: 7 weeks after cessation of treatment. The class given is in vivo, rat. As to the method: A return to fertility study was conducted with segesterone acetate in rats, using subdermal implants releasing a dose approximately 25 times the anticipated daily vaginal human dose (based on body surface area).

The test system of data set [10] is Salmonella. As to the kind of experiment: Ames/Salmonella reverse mutation assay. It is filed as cell-based.
The target in data set [11] is T1, sex hormone-binding globulin (SHBG) (Homo sapiens, UniProt P04278).
T1 sequence (P04278 30-402): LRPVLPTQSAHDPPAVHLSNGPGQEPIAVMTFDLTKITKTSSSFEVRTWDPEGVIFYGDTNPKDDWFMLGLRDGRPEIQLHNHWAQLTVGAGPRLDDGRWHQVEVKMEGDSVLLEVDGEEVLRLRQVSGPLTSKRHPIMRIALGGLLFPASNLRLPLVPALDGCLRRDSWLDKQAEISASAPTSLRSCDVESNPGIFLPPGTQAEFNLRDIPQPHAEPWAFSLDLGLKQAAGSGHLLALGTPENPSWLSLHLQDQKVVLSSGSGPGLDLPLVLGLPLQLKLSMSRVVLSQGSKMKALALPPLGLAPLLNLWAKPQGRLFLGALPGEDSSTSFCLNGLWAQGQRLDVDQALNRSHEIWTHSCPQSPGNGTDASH
The data set can be described thus: Binding to sex hormone-binding globulin.

In data set [12] the test system is mouse. The data set can be described thus: In vivo mouse micronucleus test.
Data set [13] concerns CYP enzymes. The data set can be described thus: In vitro CYP inhibition/induction studies. It is filed as in vitro ADME. The note with it: therapeutic dose.

Structures are written as SMILES. Like-named read-outs stand apart in the source and are kept apart here.

With `C#C[C@]1(O)CC[C@H]2[C@@H]3CCc4cc(O)ccc4[C@H]3CC[C@@]21C` [EE, 19-nor-17α-pregna-1,3,5(10)-trien-20-yne-3,17-diol], the excretion route result in data set [1] is “excreted in the urine and feces as glucuronide and sulfate conjugates”. Also, the primary metabolic route result in [1] is recorded as “primarily metabolized by aromatic hydroxylation”. Moreover, the “effect on serum concentrations of SHBG” value in data set [2] is given as “induces an increase in the serum concentrations of SHBG”. Further, the “amount recoverable from the vaginal system” value in data set [3] is given as “decreased in a time-dependent manner”. In addition, in data set [3] (cores before assembly, extended storage), the “amount recoverable from the core by extraction” value is given as “full amount of EE was found to be recoverable”. For the same compound, the “change in exposure from the vaginal system” value in data set [4] was “no change in exposure”. Further, the AUC(0-t) worked out at 2.1 ng·h/mL in data set [5] (Cycle 1, mean (SD), read-out: AUC0−1 day); 22.2 ng·h/mL in [5] (Cycle 1, mean (SD), read-out: AUC0−21day); 0.9 ng·h/mL in data set [5] (Cycle 3, mean (SD), read-out: AUC0−1 day); 14.7 ng·h/mL in data set [5] (Cycle 3, mean (SD), read-out: AUC0−21day); 0.7 ng·h/mL in data set [5] (Cycle 13, mean (SD), read-out: AUC0−1 day); 9.6 ng·h/mL in data set [5] (Cycle 13, mean (SD), read-out: AUC0−21day). The “decrease in systemic exposure (AUC0-21day) between the two BMI groups” value in data set [6] is on record as no more than 33%.
Take `C=C1C[C@H]2[C@@H]3CCC4=CC(=O)CC[C@@H]4[C@H]3CC[C@]2(C)[C@@]1(OC(C)=O)C(C)=O` [SA, 16-methylene-17α-acetoxy-19-nor-pregn-4-ene-3,20-dione]: the solubility entry in data set [7] (acetone) is listed as “freely soluble”; in data set [7] (ethyl acetate), “soluble”; in [7] (methanol), “soluble”; in data set [7] (n-hexane), “slightly soluble”. Also, the mutagenicity/clastogenicity result in data set [8], in data set [10] and in data set [12] was “neither mutagenic nor clastogenic” throughout. The “effects on ovulation or litter parameters” value in data set [9] is on record as “no adverse effects on ovulation or resulting litter parameters”. For the same compound, the “amount recoverable from the vaginal system” value in data set [3] is listed as “remained essentially constant”. For the same compound, the “binding affinity for sex hormone-binding globulin (SHBG)” value in [11] was “negligible binding affinity”. The “change in exposure from the vaginal system” value in data set [4] is given as “no change in exposure”. Besides, in [13], the “CYP enzyme inhibition or induction” value is recorded as “unlikely to inhibit or induce CYP enzymes”. Moreover, the “decrease in systemic exposure (AUC0-21day) between the two BMI groups” value in [6] is on record as “up to 16%”.

(Values after US12303518B2, “System for providing birth control” (The Population Council, Inc., priority 2019, dated 2025).)
